From US20250296971A1, “GASTRIC INHIBITORY PEPTIDE RECEPTOR LIGANDS” (priority 2021, published 2025)
Read-outs that look alike come from different tables or passages of the source. *1 amine or outer side, *2 acyl side, *3 side chain or, on linkers, in order; H or OH if unused. Where a SMILES comes first, the peptide text is derived from it. Bridges are numbered along the chain shown (N, C = ends). [ ]: non-standard residue; d: D form. The star is where a group is joined. TBMB(SCH2CH2NH-DOTA) = O=C(O)CN1CCN(CC(=O)O)CCN(CC(=O)NCCSCc2cc(C[*:1])cc(C[*:2])c2)CCN(CC(=O)O)CC1; X11 = O=C(CN1CCN2CCN3CCN(CC1)CC(=O)[O][In]([O]C(=O)C2)[O]C(=O)C3)NCCCOCCOCCOCCCN*; X3 = O=C(O)CN1CCN(CC(=O)O)CCN(CC(=O)NCCCOCCOCCOCCCN*)CCN(CC(=O)O)CC1; Trp(5-Cl) = N[C@@H](Cc1c[nH]c2ccc(Cl)cc12)C(=O)O; Pyridine(2,6-diCH2) = c1cc(C[*:1])nc(C[*:2])c1; Pro(trans-4-F) = O=C(O)[C@@H]1C[C@@H](F)CN1; X23 = O=C(c1cccc(CSCCN[*:1])c1)[*:2]; X7 = c1cc(CSCCN[*:2])cc(C[*:1])c1; Hyp = O=C(O)[C@@H]1C[C@@H](O)CN1; Suc = O=C(CCC(=O)[*:2])[*:1]; hCys = N[C@@H](CCS)C(=O)O; Thp = NC1(C(=O)O)CCOCC1; Dap = NC[C@H](N)C(=O)O; Aib = CC(C)(N)C(=O)O

Molecular target: T1, GIPR (CHO-K1-hGIPR cells) (Homo sapiens, UniProt P48546)
T1 construct: host or cells: CHO-K1
T1 sequence (P48546 22-466): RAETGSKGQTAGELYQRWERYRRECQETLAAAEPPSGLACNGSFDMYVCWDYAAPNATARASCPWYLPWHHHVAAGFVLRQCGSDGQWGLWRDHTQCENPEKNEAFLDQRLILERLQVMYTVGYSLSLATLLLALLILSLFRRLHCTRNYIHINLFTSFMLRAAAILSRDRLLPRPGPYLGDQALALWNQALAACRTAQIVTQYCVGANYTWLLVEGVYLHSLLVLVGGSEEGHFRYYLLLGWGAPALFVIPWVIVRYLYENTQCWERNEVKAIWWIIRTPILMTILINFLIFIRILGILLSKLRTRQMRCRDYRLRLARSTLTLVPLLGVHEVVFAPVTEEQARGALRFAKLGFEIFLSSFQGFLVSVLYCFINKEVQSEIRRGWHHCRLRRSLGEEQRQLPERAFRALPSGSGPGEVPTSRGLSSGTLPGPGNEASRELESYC
Assay: FACS binding assay
Details: read-out: pIC50 Category (converted)
Experimental: In order to determine binding of compounds according to the present invention to GIPR-expressing cells, a FACS binding assay was established.
CHO-K1-hGIPR cells (GenScript Biotech, #M00486) were cultured in Ham's F12 medium (Sigma-Aldrich, #N4888) including 10% fetal calf serum (FCS), 2 mM L-glutamine, 100 U/mL penicillin, 100 μg/mL streptomycin, 200 μg/mL Zeocin and 100 μg/mL HygromycinB. Cells were detached with Accutase (Biolegend, #BLD-423201) and washed in FACS buffer (PBS including 1% FCS). Cells were diluted in FACS buffer to a final concentration of 500.000 cells per mL. 200 μL of the cell suspension were transferred to a u-shaped non-binding 96-well plate (Greiner) and cells were washed in ice-cold FACS buffer.
Cells were washed twice in FACS buffer. An additional incubation step with 1 μg/mL APC-Streptavidin (Miltenyi; #130-106-791) in 50 μL FACS buffer for 30 min on ice was performed followed by two washes with FACS buffer.
Cells were analyzed in an Attune NxT flow cytometer. Median fluorescence intensities (MFI) of the APC/Cy5-channel were calculated by Attune NxT software. MFI values were plotted against peptide concentration and four parameter logistic (4PL) curve fitting and EC50/pEC50 or IC50/pIC50 calculations were performed using ActivityBase software.

[1] = competition with 20 nM GIP-057, 4° C., 1 hour
[2] = competition with 20 nM GIP-057, 4° C. for 1 hour

Row | Structure (SMILES) | IC50 [1] | IC50 [2]
1 | CC[C@H](C)[C@@H]1NC(=O)[C@H](CC(C)C)NC(=O)C2(CCOCC2)NC(=O)[C@@H](NC(=O)[C@@H](CC(C)C)NC(=O)[C@H](CCC(=O)O)NC(=O)[C@@H]2C[C@@H](O)CN2C(=O)[C@H](Cc2c[nH]c3ccc(Cl)cc23)NC(=O)[C@H](Cc2c[nH]c3ccccc23)NC(=O)[C@H](CC(=O)O)NC(C)=O)CCSCc2cccc(n2)CSC[C@@H](C(N)=O)NC1=O [GIP-200, Ac-Asp-Trp-5Clw-Hyp-Glu-leu-[Hcy(2Lut)-Thp-Leu-Ile-Cys]-NH2] (Ac-DW[Trp(5-Cl)][Hyp]E[dL][hCys][Thp]LIC-NH2; linker 7-11 via Pyridine(2,6-diCH2)) | < 0.01 µM | 
2 | CC[C@H](C)[C@@H]1NC(=O)[C@H](CC(C)C)NC(=O)C(C)(C)NC(=O)[C@@H](NC(=O)[C@@H](CC(C)C)NC(=O)[C@H](CCC(=O)O)NC(=O)[C@@H]2CCCN2C(=O)[C@H](Cc2c[nH]c3ccc(Cl)cc23)NC(=O)[C@H](Cc2c[nH]c3ccccc23)NC(=O)[C@H](CC(=O)O)NC(=O)CCC(=O)NCCCOCCOCCOCCCNC(=O)CN2CCN3CCN4CCN(CC2)CC(=O)[O][In]([O]C(=O)C3)[O]C(=O)C4)CSCc2cccc(c2)CSCCNC1=O [GIP-148, InDOTA-Ttds-Asp-Trp-5Clw-Pro-Glu-leu-[Cys(3MeBn)-Aib-Leu-Ile-AET]] ({X11-Suc}-DW[Trp(5-Cl)]PE[dL]C[Aib]LI; linker 7-C via X7) | < 0.01 µM | 
3 | CC[C@H](C)[C@@H]1NC(=O)[C@H](CC(C)C)NC(=O)[C@@H](C)NC(=O)[C@@H](NC(=O)[C@@H](CC(C)C)NC(=O)[C@H](CCC(=O)O)NC(=O)[C@@H]2CCCN2C(=O)[C@H](Cc2c[nH]c3ccccc23)NC(=O)[C@H](Cc2c[nH]c3ccccc23)NC(=O)CCC(=O)O)CSCc2cc(CSCCNC(=O)CN3CCN(CC(=O)O)CCN(CC(=O)O)CCN(CC(=O)O)CC3)cc(c2)CSC[C@@H](C(N)=O)NC1=O [GIP-287, HO-Succinyl-Trp-Trp-Pro-Glu-leu-[Cys(tMeBn(DOTA-AET))-ala-Leu-Ile-Cys]-NH2] (Suc-WWPE[dL]C[dA]LIC-NH2; linker 6-10 via TBMB(SCH2CH2NH-DOTA)) |  | > 1 µM
4 | CC[C@H](C)[C@@H]1NC(=O)[C@H](CC(C)C)NC(=O)C2(CCOCC2)NC(=O)[C@@H](NC(=O)[C@@H](CC(C)C)NC(=O)[C@H](CCC(=O)O)NC(=O)[C@@H]2C[C@@H](F)CN2C(=O)[C@H](Cc2c[nH]c3ccc(Cl)cc23)NC(=O)[C@H](Cc2c[nH]c3ccccc23)NC(=O)[C@H](CC(=O)O)NC(C)=O)CSCc2cccc(n2)CSC[C@@H](C(N)=O)NC1=O [GIP-187, Ac-Asp-Trp-5Clw-4Tfp-Glu-leu-[Cys(2Lut)-Thp-Leu-Ile-Cys]-NH2] (Ac-DW[Trp(5-Cl)][Pro(trans-4-F)]E[dL]C[Thp]LIC-NH2; linker 7-11 via Pyridine(2,6-diCH2)) | < 0.01 µM | 
5 | CC[C@H](C)[C@@H]1NC(=O)[C@H](CC(C)C)NC(=O)C(C)(C)NC(=O)[C@@H](NC(=O)[C@@H](CC(C)C)NC(=O)[C@H](CCC(=O)O)NC(=O)[C@@H]2CCCN2C(=O)[C@H](Cc2c[nH]c3ccc(Cl)cc23)NC(=O)[C@H](Cc2c[nH]c3ccccc23)NC(=O)[C@H](CC(=O)O)NC(=O)CCC(=O)NCCCOCCOCCOCCCNC(=O)CN2CCN(CC(=O)O)CCN(CC(=O)O)CCN(CC(=O)O)CC2)CNC(=O)c2cccc(c2)CSCCNC1=O [GIP-358, DOTA-Ttds-Asp-Trp-5Clw-Pro-Glu-leu-[Dap(3MeBz)-Aib-Leu-Ile-AET]] ({X3-Suc}-DW[Trp(5-Cl)]PE[dL][Dap][Aib]LI[X23]; lactam 7-C) |  | < 0.01 µM
6 | CC[C@H](C)[C@@H]1NC(=O)[C@H](CC(C)C)NC(=O)C2(CCOCC2)NC(=O)[C@@H](NC(=O)[C@@H](CC(C)C)NC(=O)[C@H](CCC(=O)O)NC(=O)[C@@H]2C[C@@H](O)CN2C(=O)[C@H](Cc2c[nH]c3ccc(Cl)cc23)NC(=O)[C@H](Cc2c[nH]c3ccccc23)NC(=O)[C@H](CC(=O)O)NC(C)=O)CCSCc2cccc(n2)CSCC[C@@H](C(N)=O)NC1=O [GIP-202, Ac-Asp-Trp-5Clw-Hyp-Glu-leu-[Hcy(2Lut)-Thp-Leu-Ile-Hcy]-NH2] (Ac-DW[Trp(5-Cl)][Hyp]E[dL][hCys][Thp]LI[hCys]-NH2; linker 7-11 via Pyridine(2,6-diCH2)) | < 0.01 µM | 
